{"source": "patent US8889143B2", "about": "“Ii-key/HER-2/neu hybrid cancer vaccine” (Antigen Express, Inc., priority 2006, dated 2014)", "key": {"[1]": {"experiment": "Phase II trial: DTH reactions", "assay_type": "in vivo, human", "settings": "label = challenge peptide", "from_the_text": "(§1) Immunologic response was monitored by measured delayed type hypersensitivity reactions (DTH) and ^3H-thymidine proliferative assays for both hybrid AE37 (LRMK+HER2/neu:776-790) and AE36 (unmodified HER2/neu:776-790) peptides."}, "[2]": {"settings": "in vivo", "from_the_text": "The dose escalation safety trial design is for five groups of three patients to receive escalating doses of AE37 with or without GM-CSF in six monthly inoculations. An additional six patients will be vaccinated at the optimal biologic dosing (OBD) in order to complete the 21 patient phase I trial. Enrolled patients were HLA typed, and HLA-A2^− patients and those HLA-A2^+ patients not interested in an alternative vaccine trial were vaccinated.\nThe National Institutes of Health Common Toxicity Criteria (CTC) (Version 2, Mar. 23, 1998) definitions of adverse events were applied. Both local toxicity at the injection sites as well as systemic toxicity were evaluated in all patients for all inoculations. By design, progression to the second stage occurred only if no significant toxicity occurred in the first stage.\nToxicities were graded per the National Institutes of Health Common Toxicity Criteria and reported on a scale zero to five (Table 3). Local toxicity dictated dose reductions as described above."}, "[3]": {"settings": "in vivo", "remark": "listed apart in the source", "method": "(§2) Toxicity is assessed after each inoculation using National Cancer Institute Common Terminology Criteria for Adverse Events v3.0 (CTCAE). […] Patients are clinically, radiographically, and pathologically monitored for recurrence of BCa."}, "[4]": {"experiment": "Phase Ib trial: delayed type hypersensitivity (DTH) reaction", "assay_type": "in vivo, human", "settings": "100 μg AE37 intradermal without GM-CSF", "procedure": "A direct in vivo measure of the vaccine's effectiveness is the DTH reaction. Patients were injected intradermally with 100 μg of AE37 (without GM-CSF) prior to the initiation of the vaccination series and one month after the completion of the vaccination regimen in the opposite limb to which they received the vaccine series. Patients were also injected intradermally with a parallel control (sterile saline, same volume) at a site on the back or extremity (opposite side from the vaccination site). The DTH reaction was measured in two dimensions at 48-72 hours using the sensitive ballpoint pen method and compared with control. Pre- and post-vaccination DTH reactions were also compared."}, "[5]": {"experiment": "Phase II trial: 3H-thymidine proliferative assays", "assay_type": "cell-based, human", "settings": "label = stimulating peptide", "from_the_text": "as §1"}, "[6]": {"experiment": "Phase Ib trial: local reaction and dose reductions", "assay_type": "in vivo, human", "procedure": "The study was performed as a two-stage safety trial to define the maximum tolerated dose of vaccine as well as the optimal dosing of the vaccine and GM-CSF. In the first stage (FIGS. 1-4), patient dose groups were given escalating amounts of the AE37 peptide. Three patients were assigned to each dosing group and were given the assigned dose of AE37 with a fixed initial dose of GM-CSF of 250 μg. This dose of GM-CSF was chosen based on our previous E75 trials. However, GM-CSF was reduced 50% for subsequent inoculations when local skin reaction exceeded 100 mm. All patients received monthly inoculations for six months. Dosing groups were as follows (AE37 (μg):#inoculations): 100:6, 500:6, 1000:6. Because each patient in the 500:6 group required significant and repeated reductions of GM-CSF, the 1000:6 group was initially inoculated without GM-CSF; GM-CSF was added back if local reaction from the two injection sites were non-confluent.\nThe hybrid peptide AE37 was mixed with GM-CSF (varying doses) and injected intradermally in the same extremity on a monthly basis. Each dosing group consisted of 3 patients. […] Stage I was designed to identify the maximum tolerated dose of vaccine. Stage II was designed to find the optimal biologic dose. Local toxicity dictated dose adjustments in each stage.\nA local reaction ≧100 mm in at least one direction necessitates a reduction of GM-CSF dose for the subsequent vaccination (or reduction in vaccine dose if patient received no GM-CSF). […] FIGS. 1-4 show the dose of GM-CSF and the local reaction in each patient throughout the vaccine series."}, "[7]": {"experiment": "Phase II trial: recurrence of breast cancer", "assay_type": "in vivo, human", "settings": "for Recurrences (patients/total) / Recurrences: median follow up of 13 months; for Recurrences: PG vs AG p=0.08", "method": "as §2"}, "PBMC [8]": {"test_system": "PBMC", "experiment": "IFN-γ ELISPOT assays (ex vivo and 7-day) on patient PBMC", "assay_type": "cell-based, human", "settings": "PBMC of patients vaccinated with AE37; label = stimulating peptide", "from_the_text": "Blood was drawn from patients prior to receiving each inoculation, at one month (post-vaccination), and at six months (long-term) after completing the series. Forty ml of peripheral blood was drawn into Vacutainer® CPT™ tubes (Becton Dickinson, Franklin Lakes, N.J.) and centrifuged for the isolation of PBMC populations. […]\nThe human IFN-γ ELISPOT Kit (BD-Pharmingen) was used for the ELISPOT assays. […] The plate was allowed to dry and the number of spots present in each well was counted and analyzed using a CTL-ImmunoSpot Analyzer (C.T.L. Cellular Technology Ltd, OH) (FIGS. 7-10). […]\nThe PBMC population prepared from the patient's peripheral blood (as described in the previous section) was resuspended at 2×10^6 cells/ml in CM and added as 1 ml aliquots to the 8 wells. […] At the end of the incubation period the plate was removed and the cells/cultures were harvested into separate tubes, spun down, resuspended in CM, and counted. […] The plate was allowed to dry and the number of spots present in each well was counted and analyzed using a CTL-ImmunoSpot Analyzer (C.T.L. Cellular Technology Ltd, OH) (FIGS. 11-14). […]"}, "PBMC [9]": {"test_system": "PBMC", "experiment": "3H-thymidine proliferation assay on patient PBMC", "assay_type": "cell-based, human", "settings": "PBMC of patients vaccinated with AE37, label = stimulating peptide", "from_the_text": "Blood was drawn from patients prior to receiving each inoculation, at one month (post-vaccination), and at six months (long-term) after completing the series. Forty ml of peripheral blood was drawn into Vacutainer® CPT™ tubes (Becton Dickinson, Franklin Lakes, N.J.) and centrifuged for the isolation of PBMC populations. PBMC were washed in HBSS and re-suspended in culture medium (CM) consisting of RPMI-1640 containing 10% FCS (Gemini Bio-Products, Woodland, Calif.) supplemented with 1× penicillin/L-glutamine/streptomycin (Life Technologies, Gaithersburg, Md.) and used for setting up the immunomonitoring protocol/assays which consisted of ELISPOT (IFN-γ secretion) and proliferation (3H-thymidine incorporation) assays. All cultures were maintained in a humidified incubator at 37° C. in 5% CO2.\nThe PBMC population prepared from the patient's peripheral blood sample was also used for the monitoring of vaccine-specific proliferative activity of the T lymphocytes using a standard radioactive ^3H-thymidine incorporation assay. […] The filtermat was dried and placed in a sample bag with scintillation fluid (BetaScint, Perkin-Elmer) and counted using a scintillation counter (MicroBeta Trilux Scintillation Counter, Perkin-Elmer). The proliferative activity associated with the cultures was measured by the amount of thymidine incorporation which was determined as counts per minute (cpm). […]"}, "[10]": {"settings": "Her-2/neu+ breast cancer patients; cited from earlier work"}, "[11]": {"test_system": "hen egg white lysozyme (HEL)-specific T cell hybridoma", "settings": "cited from earlier work"}, "[12]": {"experiment": "Phase II trial AE37+GM-CSF versus GM-CSF alone: toxicity (CTCAE v3.0)", "settings": "six monthly inoculations, AG = GM-CSF alone", "method": "as §2"}, "[13]": {"settings": "AG group (GM-CSF alone), p>0.05 vs baseline"}, "[14]": {"settings": "PG group (AE37 + GM-CSF), p<0.0001 vs baseline"}, "[15]": {"settings": "PG (AE37 + GM-CSF), at 3, 6, and 12 months after the start of the vaccine series, p<0.015"}}}
{"substance": "Ac-LRMKGVGSPYVSRLLGICL-NH2 [AE37]", "values": [{"measurement": "Median DTH reaction at baseline", "setting": "[1]; AG group (GM-CSF alone)", "value": "0.0±0.7", "unit": "cm"}, {"measurement": "Median DTH reaction at 1 month after completion of the primary series", "setting": "[1]; [13]", "value": 0, "unit": "mm"}, {"measurement": "Median DTH reaction at baseline", "setting": "[1]; PG group (AE37 + GM-CSF)", "value": "0.0±0.7", "unit": "cm"}, {"measurement": "Median DTH reaction at 1 month after completion of the primary series", "setting": "[1]; [14]", "value": "24.5 ± 2.6", "unit": "mm"}, {"measurement": "Grade 3 or greater local toxicities", "setting": "[2]", "value": "no grade 3 or greater local toxicities"}, {"measurement": "Local toxicity grade, all patients", "setting": "[2]", "value": "grade 1 or 2 local toxicity"}, {"measurement": "Maximum Toxicity, Local Toxicity Grade 1, number of patients (%)", "setting": "[2]", "value": "3 (25)%"}, {"measurement": "Maximum Toxicity, Local Toxicity Grade 2, number of patients (%)", "setting": "[2]", "value": "9 (75%)"}, {"measurement": "Maximum Toxicity, Local Toxicity Grade 3, number of patients (%)", "setting": "[2]", "value": "0 (0%)"}, {"measurement": "Maximum Toxicity, Systemic Toxicity Grade 1, number of patients (%)", "setting": "[2]", "value": "10 (83%)"}, {"measurement": "Maximum Toxicity, Systemic Toxicity Grade 2, number of patients (%)", "setting": "[2]", "value": "0 (0%)"}, {"measurement": "Maximum Toxicity, Systemic Toxicity Grade 3, number of patients (%)", "setting": "[2]", "value": "0 (0%)"}, {"measurement": "Overall safety and tolerability", "setting": "[2]", "value": "safe and well-tolerated with minimal systemic toxicity observed"}, {"measurement": "Systemic toxicities reported", "setting": "[2]", "value": "Only grade 1 systemic toxicities"}, {"measurement": "Overall safety", "setting": "[3]", "value": "safe"}, {"measurement": "DTH diameter of local reaction pre vaccine, range", "setting": "[4]; before vaccination series", "value": "0-17 mm"}, {"measurement": "DTH diameter of local reaction post-vaccine, range", "setting": "[4]; one month after completion of series", "value": "12-106 mm"}, {"measurement": "DTH mean diameter of local reaction post-vaccine", "setting": "[4]; one month after completion of series, p<0.0001 vs pre", "value": 62, "unit": "mm"}, {"measurement": "DTH mean diameter of local reaction pre vaccine", "setting": "[4]; read at 48-72 hours, before vaccination series", "value": 4.9, "unit": "mm"}, {"measurement": "Median proliferation response versus baseline", "setting": "[5]; AG (GM-CSF alone)", "value": "did not significantly change"}, {"measurement": "Median proliferation response versus baseline", "setting": "[5]; [15]", "value": "significantly increased from baseline"}, {"measurement": "Dose reductions required because of local reaction ≧100 mm", "setting": "[6]; first group 100:6 (100 μg AE37 + 250 μg GM-CSF)", "value": "required no reductions in dose"}, {"measurement": "Dose reductions required because of local reaction ≧100 mm", "setting": "[6]; second group 500:6 (500 μg AE37 + 250 μg GM-CSF initially)", "value": "required a GM-CSF dose reduction by the third vaccine"}, {"measurement": "Dose reductions required because of local reaction ≧100 mm", "setting": "[6]; third group 1000:6 (1000 μg AE37 initiated without GM-CSF)", "value": "two of the three patients in this group required reduction of vaccine dose on multiple occasions"}, {"measurement": "Recurrences (patients/total)", "setting": "[7]", "value": "0/49"}, {"measurement": "Recurrences", "setting": "[7]", "value": 0.0, "unit": "%"}, {"measurement": "Protection against BCa recurrences", "setting": "[7]; phase II", "value": "protects against BCa recurrences"}]}
{"substance": "Ac-GVGSPYVSRLLGICL-NH2 [AE36, native HER-2/neu peptide aa776-790, reference compound]", "values": [{"measurement": "Median DTH reaction at baseline", "setting": "[1]; AG group (GM-CSF alone)", "value": "0.0±0.5", "unit": "cm"}, {"measurement": "Median DTH reaction at 1 month after completion of the primary series", "setting": "[1]; [13]", "value": 0, "unit": "mm"}, {"measurement": "Median DTH reaction at baseline", "setting": "[1]; PG group (AE37 + GM-CSF)", "value": "0.0±0.8", "unit": "cm"}, {"measurement": "Median DTH reaction at 1 month after completion of the primary series", "setting": "[1]; [14]", "value": "15.3 ± 2.1", "unit": "mm"}, {"measurement": "CD4+ T cell response (IFN-γ ELISPOT) to stimulating peptide after vaccination", "setting": "PBMC [8]", "value": "increased CD4+ T cell response"}, {"measurement": "Median proliferation response versus baseline", "setting": "[5]; AG (GM-CSF alone)", "value": "did not significantly change"}, {"measurement": "Median proliferation response versus baseline", "setting": "[5]; [15]", "value": "significantly increased from baseline"}, {"measurement": "Peptide-specific proliferation of T cells after vaccination", "setting": "PBMC [9]", "value": "increased capacity to divide and expand a specific clone"}, {"measurement": "Peptide-specific proliferation of T cells after vaccination", "setting": "PBMC [9]; listed as native Her-2/neu peptide", "value": "increased CD4+ T cell response"}]}
{"substance": "GP2: immunogenic peptide of Her-2/neu used in clinical trials as vaccine (IISAVVGIL; UniProt P04626 654-662, looked up, fragment)", "values": [{"measurement": "Safety in patients", "setting": "[10]", "value": "safe in patients"}, {"measurement": "Stimulation of antigen specific immunity", "setting": "[10]", "value": "effective in stimulating antigen specific immunity"}]}
{"substance": "LRMK [four-amino-acid Ii-Key moiety, Ii 77-80]", "values": [{"measurement": "Activity retained relative to LRMKLPK", "setting": "[11]", "value": "at least 50%"}]}
{"substance": "LRMKLPK", "values": [{"measurement": "Potency relative to the original 16-amino acid peptide", "setting": "[11]", "value": "greater potency than the original 16-amino acid peptide"}]}
{"substance": "GM-CSF", "values": [{"measurement": "Local toxicities", "setting": "[12]; PG = 500 mcg AE37 + 62.5 or 125 mcg GM-CSF", "value": "no grade 4-5 local toxicities"}, {"measurement": "Systemic toxicities", "setting": "[12]; PG = AE37 + GM-CSF", "value": "no grade 3-5 systemic toxicities"}, {"measurement": "Recurrences (patients/total)", "setting": "[7]", "value": "5/71"}, {"measurement": "Recurrences", "setting": "[7]", "value": 7.0, "unit": "%"}]}
